# Results: patent publication US3954777A, “Aminopropionyl derivatives of 2,3-diphenyl cyclopropylamine” (Zambon S.p.A., priority 1970, dated 1976)
# Structures can show the parent of a compound that is named as a salt. Where two headings read alike, the source gives them in different places.
# What was measured:
# [1] = tested on: crisis produced with cardiazol; experiment: Schock by cardiazol (M.M.S.), protection from extensor phase of hind paws; assay type: in vivo, male albine Swiss mice; details: Mus musculus
# Protocol: (§1) The preferred method is that according to Schotten-Baumann. […] Preferably an excess of the same amine is used both as acid binding substance and as solvent. If the amine is a low-boiling one the reaction is carried out in a sealed tube while if the amine has a high-boiling point is preferred to operate at the boiling temperature of the reaction mixture. […] Materials and methods. The animals used in the tests, unless otherwise indicated, were male albine Swiss mice weighing 19-23 g; each animal has been used only once.
# (§2) Electroshock (M.E.S.). The method followed in performing the electroshock is C. H. Cashin and J. Jackson's method (J.Pharm.Pharmacol.,1962, 14 (supl.) 445) modified as follows: the electrodes are placed in the outer ear which is, before the shock, filled with a physiological solution. The applied voltage is of 92 volts with a current of 50 Hz stabilized with Selonix H.T. 4420 stabilizer; duration of shock 0.2 seconds. […] (E. A. Swinyard, W. C. Brown; L. S. Goodman, J. Pharmacol., 1952, 106, 319) Schock by cardiazol (M.M.S.). 38 mg/kg of cardiazol, under the form of a 0.38% aqueous solution, is quickly injected in the dorsal vein of the mouse tail (L. S. Goodman, M. Singh Grewal, W. C. Brown, E. A. Swinyard, J. Pharmacol. 1953, 108, 168). The animals are considered as protected when the extensor phase of the hind paws is eliminated during the tonic crisis. The so obtained data have been elaborated by calculating the ED50 and the LD50 according to Lichtfield-Wilcoxon's method (J. Pharmacol. 1949, 96, 99).
# [2] = tested on: crisis produced with electroshock; experiment: Electroshock (M.E.S.), protection from extensor phase of hind paws; assay type: in vivo, male albine Swiss mice; details: Mus musculus
# Protocol: as §1, §2
# [3] = in vivo; details: mouse, ip
# Protocol: as §1, §2
# [4] = sc, 0.5 h, new compounds (Table 2), under skin, 30 minutes ante, as hydrochlorides, cardiazol 38 mg/kg i.v., read-out: ED50 M.M.S.
# [5] = sc, 0.5 h, new compounds (Table 2), under skin, 30 minutes ante, as hydrochlorides, read-out: ED50 M.E.S.
# [6] = sc, 0.5 h, read-out: M.M.S. ED50
# [7] = sc, 0.5 h, reference compounds (Table 1), under skin, 30 minutes ante, cardiazol 38 mg/kg i.v., read-out: M.M.S. ED50
# [8] = sc, 0.5 h, reference compounds (Table 1), under skin, 30 minutes ante, read-out: M.E.S.-ED50
compound,measurement,setting,value
O=C(CCN1CCCC1)NC1[C@H](c2ccccc2)[C@H]1c1ccccc1 (relative stereo) [cis-trans (line b76)],ED50,[1]; [4],20 mg/kg
same,ED50,[2]; [5],24 mg/kg
O=C(CCN1CCCCC1)NC1[C@H](c2ccccc2)[C@H]1c1ccccc1 (relative stereo) [cis-trans (line b79)],ED50,[1]; [4],15 mg/kg
same,ED50,[2]; [5],16 mg/kg
CN1CCN(CCC(=O)NC2[C@H](c3ccccc3)[C@H]2c2ccccc2)CC1 (relative stereo) [cis-trans (line b82)],ED50,[2]; [5],275 mg/kg
"CCN(CC)CCC(=O)NC1[C@H](c2ccccc2)[C@H]1c1ccccc1 (relative stereo) [cis-trans, R1 = C2 H5, R2 = C2 H5, N-(beta-diethylamino)propionyl-2,3 -cis,trans-diphenylcyclopropylamine]",LD50 at 72 h,[3],79 mg/kg
same,ED50,[1]; [4],27 mg/kg
same,ED50,[2]; [5],33.5 mg/kg
"CN(CCC(=O)NC1[C@H](c2ccccc2)[C@H]1c1ccccc1)Cc1ccccc1 (relative stereo) [cis-trans, R1 = CH3, R2 = CH2 --C6 H5, N-[beta-(N'-benzyl)methylamino]propionyl-2,3-cis,trans-diphenylcyclopropylamine hydrochloride]",ED50,[1]; [4],98 mg/kg
same,ED50,[2]; [5],91 mg/kg
"CN(C)CCC(=O)NC1[C@H](c2ccccc2)[C@H]1c1ccccc1 (relative stereo) [cis-trans, R1 = CH3, R2 = CH3, N-(beta-dimethylamino)propionyl-2,3 -cis,trans-diphenylcyclopropylamine]",LD50 at 72 h,[3],88 mg/kg
same,ED50,[1]; [4],16.5 mg/kg
same,ED50,[2]; [5],21.8 mg/kg
"CCNCCC(=O)NC1[C@H](c2ccccc2)[C@H]1c1ccccc1 (relative stereo) [cis-trans, R1 = H, R2 = C2 H5, N-(beta-ethylamino)propionyl- 2,3 -cis,trans-diphenylcyclopropylamine hydrochloride]",LD50 at 72 h,[3],89.5 mg/kg
same,ED50,[1]; [4],> 90 mg/kg
same,ED50,[2]; [5],> 90 mg/kg
"CNCCC(=O)NC1[C@H](c2ccccc2)[C@H]1c1ccccc1 (relative stereo) [cis-trans, R1 = H, R2 = CH3, N-(beta-methylamino)-propionyl-2,3 -cis,trans-diphenyl cyclopropylamine hydrochloride]",LD50 at 72 h,[3],120 mg/kg
same,ED50,[1]; [4],> 120 mg/kg
same,ED50,[2]; [5],> 120 mg/kg
"CCC1(c2ccccc2)C(=O)NC(=O)NC1=O [Phenobarbital sodium salt, reference compound]",LD50 at 72 h,[3]; in vivo,182 mg/kg
same,ED50,[1]; [6],4.5 mg/kg
same,ED50,"[2]; sc, 0.5 h, read-out: M.E.S.-ED50",35 mg/kg
"CN(C)C(=O)Nc1ccccc1 [Phenurone, 1,1-dimethyl-3-phenyl-urea, reference compound]",ED50,"[1]; po, 1 h, read-out: M.M.S. ED50",50 mg/kg
same,ED50,"[2]; po, 1 h, read-out: M.E.S.-ED50",115 mg/kg
"CN1C(=O)OC(C)(C)C1=O [Trimethadione, reference compound]",ED50,[1]; [6],175 mg/kg
"CCC1(C)CC(=O)NC1=O (centres unmarked) [ethosuximide, reference compound]",ED50,[1]; [7],50 mg/kg
"Cc1ccccc1OCC(O)CO (centres unmarked) [mephenesin, reference compound]",ED50,[1]; [7],180 mg/kg
same,ED50,[2]; [8],245 mg/kg
"O=C1NC(=O)C(c2ccccc2)(c2ccccc2)N1 [phenitoine sodium salt, reference compound]",LD50 at 72 h,[3]; in vivo,120 mg/kg
same,ED50,[1]; [7],7.1 mg/kg
same,ED50,[2]; [8],15 mg/kg
"CCC1(c2ccccc2)C(=O)NCNC1=O [primidone, reference compound]",ED50,"[1]; po, reference compound (Table 1), per os, 6 hours ante, cardiazol 38 mg/kg i.v., read-out: M.M.S. ED50",5.2 mg/kg
